Experimental data reported in PMC5656594 (Scientific Reports, 2017).
pKd: −log10 of the molar value. “And” between values parts separate entries of the source, which are not always exact repeats. Identical values can stand only once.

How the values were obtained:
S217K IN^PFV-DNA complex [1] = molecular target: T1, S217K IN^PFV-DNA complex (Human spumaretrovirus, UniProt P14350, G968K/S969G); assay: DTG fluorescence anisotropy binding assay, S217K mutant; design: species or system prototype foamy virus (PFV); conditions: 10 mM Mg2+, DTG 0.6 μM, [IN]=[DNA]=2.4 μM
T1 construct: The pET-IN-PFV plasmid containing the full-length IN gene was used for mutagenesis; His; made in house; host or cells: E. coli BL21-CodonPlus (DE3)-RIPL
Experimental: (§1) The fluorescence intensity was monitored as a function of (IN + DNA) and plotted as a function of the binary IN-DNA complex concentration (measured as explained in Fig. 2E legend). […] (B) The percentage of ternary complexes was calculated using DTG fluorescence enhancement. […] The graphs in panels A-B show representative data of three independent experiments. […] "DTG" is taken from the y-axis title of the same panel.
(§2) To note, Mg^2+ is dispensable for the overall DNA-binding step of IN[32],[43]–[45] and thus, the loss of Mg^2+ chelation is not contradictory with results showing that catalytic mutants bind equally well to DNA and in a similar manner than wt IN (Supplementary Fig. S6). However, G187R cannot be considered as a catalytic mutant since it sustains a significant ST activity although weak (≈10% of the wt activity; Fig. 6).
(§3) Fluorescence excitation and emission spectra of INSTIs were recorded on a Eclipse (Varian) spectrofluorimeter equipped with two polarizers for anisotropy measurements and a thermostated cell holder, using 80 µl solutions placed in micro cells (Hellma). […] The steady-state fluorescence anisotropy was calculated using: r = (IVV–G x IVH)/(IVV + 2GxIVH) where IVV and IVH correspond to vertical and horizontal components, respectively, when the sample is excited with vertically polarized light. […]

D128N IN^PFV-DNA complex = molecular target: T2, D128N IN^PFV-DNA complex (Human spumaretrovirus, UniProt P14350, D879N/G968S/S969G); assay: Fluorescence enhancement DTG-binding assay, D128N catalytic mutant; design: species or system prototype foamy virus (PFV); conditions: 1 mM Mg2+
T2 construct: The pET-IN-PFV plasmid containing the full-length IN gene was used for mutagenesis; His; made in house; host or cells: E. coli BL21-CodonPlus (DE3)-RIPL
Experimental: as §1, §2, §3

IN = conditions: INSTIs; cited from earlier work
S217K IN^PFV-DNA complex [2] = molecular target: T1, S217K IN^PFV-DNA complex; assay: Fluorescence enhancement DTG-binding assay, S217K mutant; design: species or system prototype foamy virus (PFV); conditions: DTG 0.3 μM, 1 mM Mg2+
Experimental: The fluorescence intensity was monitored as a function of (IN + DNA) and plotted as a function of the binary IN-DNA complex concentration (measured as explained in Fig. 2E legend). […] The graphs in panels A-B show representative data of three independent experiments.
(§4) Fluorescence excitation and emission spectra of INSTIs were recorded on a Eclipse (Varian) spectrofluorimeter equipped with two polarizers for anisotropy measurements and a thermostated cell holder, using 80 µl solutions placed in micro cells (Hellma). Drug, IN and DNA concentrations, excitation/emission slit settings as well as the photomultiplier tube (PMT) voltage are specified in figure legends. The intensity value was corrected from the inner filter effect. The steady-state fluorescence anisotropy was calculated using: r = (IVV–G x IVH)/(IVV + 2GxIVH) where IVV and IVH correspond to vertical and horizontal components, respectively, when the sample is excited with vertically polarized light. G represents the correction factor for the difference in the monochromator transmission between // and ⊥ polarized components: G = IHV/IHH. All experiments were performed at 25 °C in buffer A: 20 mM Tris pH 7.2, 50 mM NaCl, 1 mM DTT and 10% (v/v) DMSO.

S217K IN^PFV mutant = format: biochemical, prototype foamy virus (PFV); conditions: S217K versus wt, ST activity
Experimental: The graphs show representative data of three independent experiments. […] ST products were quantified as explained in the Methods section.
DNA#13 mimicking the 3′-processed end (Table 1) was radiolabeled with T4 polynucleotide kinase (NEB) and [γ-^32P]ATP (Amersham) and purified on a Sephadex G-10 column. The double-stranded DNA substrate was obtained by mixing equimolar amounts of ssDNA#13 with its 21-mer complementary strand in the presence of 100 mM NaCl. ST reactions were carried out at 37 °C with 200 or 300 nM IN in 20 mM HEPES pH 6.8, 1 mM DTT, 10 mM MgCl2 and 50 mM NaCl, in the presence of 12.5 nM DNA. After separation in a 16% acrylamide/urea denaturing gel, ST products were analyzed with a Typhoon TRIO variable mode imager (GE Healthcare) and quantified with ImageQuant TL software. ST activity was expressed as the % of the signal intensity of ST products divided by the signal intensity of the DNA substrate. […] IC50 values were determined using the Prism 5.0 software.

D185N IN^PFV-DNA complex = molecular target: T3, D185N IN^PFV-DNA complex (Human spumaretrovirus, UniProt P14350, D936N); assay: Fluorescence enhancement DTG-binding assay, D185N catalytic mutant; design: species or system prototype foamy virus (PFV); conditions: 1 mM Mg2+
T3 construct: The pET-IN-PFV plasmid containing the full-length IN gene was used for mutagenesis; His; made in house; host or cells: E. coli BL21-CodonPlus (DE3)-RIPL
Experimental: as §1, §2, §3

[3] = molecular target: T4, PFV IN complexed with various DNA sequences (Human spumaretrovirus, UniProt P14350); assay: DTG binding to IN complexed with various DNA sequences, fluorescence anisotropy procedure; design: species or system prototype foamy virus (PFV); conditions: normalized by DNA#1, [IN]=[DNA]=1.8 μM, [DTG]=0.6 μM, 10 mM Mg2+
T4 construct: The full-length wt IN^PFV, the three single mutants of the catalytic triad; His; made in house; host or cells: E. coli BL21-CodonPlus (DE3)-RIPL
Experimental: The binary complex concentration was measured as explained in Fig. 2E. […] This percentage was then plotted against the concentration of the binary complex (F). […] All graphs show representative data of three (panels A and B) or two (panels C–F) independent experiments.
as §4

[4] = DTG-Mg2+ interaction, titration of DTG fluorescence emission enhancement as a function of [Mg2+]; format: physicochemical; conditions: DTG 1 μM, λex 345 nm, buffer A, hyperbolic titration curve; read-out: Kd of the DTG-Mg^2+ interaction
Text: Figure 1 Fluorescence properties of INSTIs in solution and influence of divalent cations. […] Corresponding excitation and emission spectra are shown in Supplementary Fig. S1. Excitation and emission slits: Δλex = Δλem = 5 nm (PMT = 750 V). The fluorescence enhancement factor corresponds to the drug fluorescence emission intensity for a given Mg^2+ concentration normalized by the intensity in the absence of Mg^2+. […] The emission intensity was reported as a function of [Mg^2+] (inset). […] The bar graphs in panels A and D show mean ± SD values from three independent experiments. […] Only [Mg2+] and λex: 345 nm appear in the panel, so the substance is left empty.
Furthermore, both drugs display a Mg^2+ dependence of fluorescence intensity, however with some differences. A slight increase of EVG fluorescence intensity was observed upon addition of Mg^2+ (a 3-fold increase for the two excitation modes from 0 to 10 mM Mg^2+; Fig. 1B). […] This Mg^2+-dependent enhancement is related to an increase of the fluorescence quantum yield since no Mg^2+-dependent change in the absorption spectrum was observed (Supplementary Fig. S2A).
Fluorescence excitation and emission spectra of INSTIs were recorded on a Eclipse (Varian) spectrofluorimeter equipped with two polarizers for anisotropy measurements and a thermostated cell holder, using 80 µl solutions placed in micro cells (Hellma). […]

Question: For `C[C@@H]1CCO[C@H]2Cn3cc(C(=O)NCc4ccc(F)cc4F)c(=O)c(O)c3C(=O)N12` [DTG, dolutegravir], which “DTG binding to S217K by DTG anisotropy” value (S217K IN^PFV-DNA complex [1]) is on record?
Answer: The value was “DTG-binding defects”.

Question: What about the “DTG binding to D128N catalytic mutant” value (D128N IN^PFV-DNA complex) of the same molecule?
Answer: The value was “loss of DTG-binding”.

Question: And the IC50 values (IN)?
Answer: Its IC50 values is “low-nanomolar range”.

Question: What about the “DTG binding to S217K” value (S217K IN^PFV-DNA complex [2]) of the same molecule?
Answer: Its value is “No binding”.

Question: What about the “decrease in DTG susceptibility” value (S217K IN^PFV mutant) of the same molecule?
Answer: The value was “≈ 50 fold”.

Question: And the “DTG binding to D185N catalytic mutant” value (D185N IN^PFV-DNA complex)?
Answer: Its value is “loss of DTG-binding”.

Question: And the “DTG-binding (%) Fluorescence anisotropy procedure” value ([3]; DNA#1 (cognate))?
Answer: Its value is 100%.

Question: And the “DTG-binding (%) Fluorescence anisotropy procedure” value ([3]; DNA#3)?
Answer: The value was 96 ± 3%.

Question: What about the “DTG-binding (%) Fluorescence anisotropy procedure” value ([3]; DNA#7) of the same molecule?
Answer: Its value is 42 ± 6%.

Question: What about the “DTG-binding (%) Fluorescence anisotropy procedure” value ([3]; DNA#8) of the same molecule?
Answer: The value was 8 ± 2%.

Question: And the “DTG-binding (%) Fluorescence anisotropy procedure” value ([3]; DNA#9 (random sequence))?
Answer: Its value is 15 ± 3%.

Question: What about the “DTG-binding (%) Fluorescence anisotropy procedure” value ([3]; DNA#11) of the same molecule?
Answer: Its value is 29 ± 3%.

Question: And the “DTG-binding (%) Fluorescence anisotropy procedure” value ([3]; DNA#12)?
Answer: Its value is 77 ± 4%.

Question: What about the “DTG-binding (%) Fluorescence anisotropy procedure” value ([3]; DNA#13 (processed DNA product)) of the same molecule?
Answer: Its value is 79 ± 5%.

Question: And the pKd [4]?
Answer: The pKd was ~2.92 and 2.70 to 3.00.
